Assay results from patent US20050203155A1, “Imidazole compounds and human cellular proteins casein kinase I alpha, delta and epsilon as targets for medical intervention against Hepatitis C Virus infections” (priority 2002, published 2005).

Experiments:
HCV RNA = assay: Metabolic labelling of HCV RNA in HCV replicon cell line 5-15 in the presence of actinomycin D; format: cell-based, Hepatitis C Virus; conditions: 50 μM, replicon cell line 5-15, actinomycin D, overnight [33P]-orthophosphate labelling
Method: 1×10^6 Huh7-5-15 replicon cells and Huh-pcDNA3 cells were seeded into 10 cm culture plates and grown as described. After 24 hours cells were washed with phosphate-free medium and incubated in phosphate-free medium supplemented with 10% phosphate-free calf serum. Actinomycin D at a final concentration of 5 μg/ml was added to the cells together with the tested compounds at final concentrations of 10 and 50 μM. After 30 minutes of incubation cells were supplemented with 200 μCi ^33P-orthophosphate per dish and incubated over night. After cell lysis, RNA isolation was performed using the RNeasy mini kit (QIAGEN) according to recommendations given by the manufacturer. Northern blot was carried out according to standard procedures and autoradiography of the membrane was performed.

CKI isoforms α, δ and ε = assay: In-vitro kinase assay, GST-NS5A phosphorylation by Mono Q Peak I fractions of Huh-7 cells; format: biochemical, human; conditions: CKI-enriched partially purified Mono Q fraction of Huh-7 cells, FIG. 6A
Method: Confluent 15 cm dishes of Huh-7 cells were lysed in 500 μl lysis buffer per dish containing 20 mM Tris (tris-(hydroxymethyl)-amino methane) pH 8.0, 10 mM NaF (sodium fluoride), 2 mM MgCl2 (Magnesium chloride), 1 mM DTT (dithiothreitol), 2 mM EGTA (ethylene glycol-bis(β-amino-ethyl ether)-N,N,N′,N′-tetraacetic acid), 1 mM PMSF (phenylmethylsulfonyl fluoride), 0.1% NP40 (Nonidet P-40), 10 μg/ml Aprotinin, 10 μg/ml Leupeptin, and 1 mM orthovanadate. Lysates were cleared by centrifugation (20 min, 13000 rpm, 4° C.) and filtered using a 0.45 μm syringe filter (Nalgene). This cleared material was further purified by a 1 ml Mono Q column (Amersham Biosciences) equilibrated with lysis buffer without additives. After washing the column, bound proteins were eluted with lysis buffer containing 1 M NaCl in a step gradient modus. Eluted proteins were collected in 1 ml fractions, systematically pooled, dialysed against 50 mM Tris pH 7.5, 10 mM NaF, 1 mM DTT, 0.01% Triton X-100 and stored at −80° C. Chromatography runs were performed on a AKTA explorer 10 system (Amersham Biosciences). Samples were subsequently assayed by in-vitro kinase assays and western blot analysis.
GST-NS5A immobilized to Glutathione Sepharose 4B beads (Amersham Biosciences) was washed twice with 500 μl kinase buffer (50 mM Tris pH 7.5, 10 mM MgCl2, 0.5 mM DTT). […]

HCV replicons = assay: Luciferase reporter assay of HCV replicons in the Huh-5-2 cell line; format: cell-based, Hepatitis C Virus; conditions: for % activity (luciferase, replicon RNA levels): 3 days, Huh-5-2, percentage of DMSO controls
Text: (§1) The Huh-5-2 cell line carries the persistant bicistronic replicon I389luc-ubi-neo/NS3-3′/5.1 that expresses a firefly luciferase-ubiquitin-neomycin phosphotransferase fusion protein under the control of the HCV 5′ UTR and the NS3-5B HCV polyprotein that harbors the cell culture adaptive mutation of NK5.1. (J. Virol. 75:4614-4624, 2001) and is driven by the EMCV-IRES. Autonomously replicating HCV RNA replicons are detectable by Northern blot or via expression of the luciferase part of the fusion protein in a luciferase reporter assay. For luciferase reporter assays, Huh-5-2 cells were seeded at 2500 cells per well in 96 well plates in medium without G418. […] On day 3 after addition of compounds, Alamar Blue™ solution (Serotec), which contains a redox indicator, was added to the cells to measure cell proliferation and compound cytotoxicity. After incubation for 3-4 hours, fluorescence was monitored at the wavelengths of 560 nm and 590 nm with a Wallac 1420 multilabel counter. For the luciferase assay, the cells were subsequently washed twice with PBS without sodium hydrogen carbonate (Life Technologies GmbH, Karlsruhe), and luciferase activity was determined with the LucLite Plus Assay Kit (Packard Bioscience B.V.) according to the manufacturer's instructions in a Wallac 1450 Microbeta Luminescence counter.

Huh-5-2 replicon cells = assay: Alamar Blue toxicity assay in Huh-5-2 replicon cells; format: cell-based, human; conditions: for % of cell viability: 3 days, Huh-5-2, percentage of DMSO controls
Text: as §1

Compound: C[S+]([O-])c1ccc(-c2nc(-c3cccc(I)c3)c(-c3ccncc3)[nH]2)cc1 (centres unmarked) [Compound 39, 4-[5-(3-Iodo-phenyl)-2-(4-methanesulfinyl-phenyl)-3H-imidazole-4-yl]-pyridine]
- synthesis of HCV RNA (HCV RNA): reduced
- inhibitory effect on NS5A-phosphorylating kinase activity present in the Peak I fractions (CKI isoforms α, δ and ε): potent inhibitor
- % activity (luciferase, replicon RNA levels) (HCV replicons; 1.25 μM): 117%
- % activity (luciferase, replicon RNA levels) (HCV replicons; 2.5 μM): 104%
- % activity (luciferase, replicon RNA levels) (HCV replicons; 5 μM): 89%
- % activity (luciferase, replicon RNA levels) (HCV replicons; 10 μM): 28%
- % activity (luciferase, replicon RNA levels) (HCV replicons; 20 μM): 0%
- IC50 (HCV replicons; Hepatitis C virus, 72 h, Huh-5-2, 3 days, read-out: IC50, replication of subgenomic HCV replicon RNA in the luciferase reporter assay): 9 µM
- % of cell viability (Huh-5-2 replicon cells; 1.25 μM): 108%
- % of cell viability (Huh-5-2 replicon cells; 2.5 μM): 105%
- % of cell viability (Huh-5-2 replicon cells; 5 μM): 109%
- % of cell viability (Huh-5-2 replicon cells; 10 μM): 114%
- % of cell viability (Huh-5-2 replicon cells; 20 μM): 72%
- Toxicity (Huh-5-2 replicon cells; up to a concentration of 10 μM, Huh-5-2): low
